From US9440978B2, “Imidazolo-, oxazolo-, and thiazolopyrimidine modulators of TRPV1” (Janssen Pharmaceutica NV, priority 2007, dated 2016)
Counter-ions that a name gives are not always drawn. Like-named read-outs stand apart in the source and are kept apart here.

Tests used:
human TRPV1 = biological target: T1, human TRPV1 (Homo sapiens, UniProt Q8NER1); assay: Block of capsaicin-induced Ca2+ influx, human assay (hTRPV1/HEK293, FLIPR); format: cell-based; settings: HEK293 cells transfected with human TRPV1; 150 nM capsaicin challenge; mean; > value = solubility limit in assay medium
T1 construct: expressed in transfected cells; host or cells: HEK293
Procedure: (§1) HEK293 cells were transfected with human TRPV1 cloned in pcDNA3.1zeo(+) using the Effectene non-liposomal lipid based transfection kit (Qiagen) (hTRPV1/HEK293). hTRPV1/HEK293 cells were routinely grown as monolayers under selection in zeocin (200 μg/mL; Invitrogen) in Dulbecco's Modified Eagle Medium (DMEM, Gibco BRL) supplemented with 10% fetal bovine serum, and penicillin/streptomycin (50 units/mL) in 5% CO2 at 37° C. Cells were passaged frequently, every 3-5 days, to avoid overgrowth, depletion of essential medium components, or acidic medium exposure. Cells were passaged using a brief wash in 0.05% trypsin with 1 mM EDTA, followed by dissociation in divalent-free phosphate-buffered saline (Hyclone #SH30028.02). […] The assay buffer was composed of 130 mM NaCl, 2 mM KCl, 2 mM MgCl2, 10 mM HEPES, 5 mM glucose, and either 2 mM or 20 μM CaCl2. On the day of the experiment, the culture medium was replaced with 2 mM calcium assay buffer using an automated plate washer (ELx405; Biotek, VT). […] After loading the cells, the dye solution was replaced with 50 μL/well of 20 μM calcium assay buffer using the ELx405 plate washer. Test compounds (50 μL/well) were added to the plate and incubated for 30 min. Intracellular Ca^2+ levels were subsequently assayed using a Fluorometric Imaging Plate Reader (FLIPR™ instrument, Molecular Devices, CA) to simultaneously monitor Fluo-3 fluorescence in all wells (λexcitation=488 nm, λemission=540 nm) during challenge with agonist (capsaicin). The IC50 values were determined. […] The contents of the wells were mixed 3 times (40 μL mix volume) immediately after the additions were made. Concentration-dependence of block was determined by exposing each well of cells in duplicate rows of a 96-well plate to a serial dilution of test compound. The concentration series usually started at 10 μM with a three-fold serial decrement in concentration. The magnitude of the capsaicin response was determined by measuring the change in fluo3 fluorescence before and 100 seconds after the addition of the agonist. Data were analyzed using a non-linear regression program (Origin; OriginLab, MA).
(§2) IC50 values shown are the average (mean) of the results obtained. […] Compounds were tested as in the free base, trifluoroacetic acid salt, or hydrochloride salt form.

rat TRPV1 = biological target: T2, rat TRPV1 (Rattus norvegicus, UniProt O35433); assay: Block of capsaicin-induced Ca2+ influx, rat assay (rTRPV1/HEK293, FLIPR); format: cell-based
T2 construct: expressed in transfected cells; host or cells: HEK293
Procedure: as §1
This assay was performed similarly to the human assay described above, but using HEK293 cells transfected with rat TRPV1 (rTRPV1/HEK293).
as §2

[1] = HEK293 cells transfected with rat TRPV1, capsaicin challenge, mean, > value = solubility limit in assay medium, read-out: Rat IC50

T1 sequence (Q8NER1 whole entry): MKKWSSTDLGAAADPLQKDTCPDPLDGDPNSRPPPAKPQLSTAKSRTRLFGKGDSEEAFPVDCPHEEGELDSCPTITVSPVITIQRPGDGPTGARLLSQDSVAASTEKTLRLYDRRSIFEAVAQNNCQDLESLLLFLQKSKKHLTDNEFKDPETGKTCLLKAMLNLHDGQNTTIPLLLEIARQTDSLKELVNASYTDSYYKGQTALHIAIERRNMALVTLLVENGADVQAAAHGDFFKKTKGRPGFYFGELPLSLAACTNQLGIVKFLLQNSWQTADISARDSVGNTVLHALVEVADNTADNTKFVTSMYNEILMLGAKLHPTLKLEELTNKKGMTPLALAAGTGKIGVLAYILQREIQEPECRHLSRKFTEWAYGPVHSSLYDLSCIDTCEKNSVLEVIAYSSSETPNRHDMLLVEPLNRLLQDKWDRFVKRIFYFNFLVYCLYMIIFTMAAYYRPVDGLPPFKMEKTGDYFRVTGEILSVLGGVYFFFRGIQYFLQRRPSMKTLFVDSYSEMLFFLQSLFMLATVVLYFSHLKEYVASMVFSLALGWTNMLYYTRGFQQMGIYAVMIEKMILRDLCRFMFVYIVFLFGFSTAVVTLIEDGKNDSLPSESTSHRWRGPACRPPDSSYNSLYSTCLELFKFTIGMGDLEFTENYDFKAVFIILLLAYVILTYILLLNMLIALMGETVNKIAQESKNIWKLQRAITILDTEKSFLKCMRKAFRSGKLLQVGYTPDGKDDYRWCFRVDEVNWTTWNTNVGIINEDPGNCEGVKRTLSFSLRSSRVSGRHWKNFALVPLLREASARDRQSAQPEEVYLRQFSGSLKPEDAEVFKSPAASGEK
T2 sequence (O35433 whole entry): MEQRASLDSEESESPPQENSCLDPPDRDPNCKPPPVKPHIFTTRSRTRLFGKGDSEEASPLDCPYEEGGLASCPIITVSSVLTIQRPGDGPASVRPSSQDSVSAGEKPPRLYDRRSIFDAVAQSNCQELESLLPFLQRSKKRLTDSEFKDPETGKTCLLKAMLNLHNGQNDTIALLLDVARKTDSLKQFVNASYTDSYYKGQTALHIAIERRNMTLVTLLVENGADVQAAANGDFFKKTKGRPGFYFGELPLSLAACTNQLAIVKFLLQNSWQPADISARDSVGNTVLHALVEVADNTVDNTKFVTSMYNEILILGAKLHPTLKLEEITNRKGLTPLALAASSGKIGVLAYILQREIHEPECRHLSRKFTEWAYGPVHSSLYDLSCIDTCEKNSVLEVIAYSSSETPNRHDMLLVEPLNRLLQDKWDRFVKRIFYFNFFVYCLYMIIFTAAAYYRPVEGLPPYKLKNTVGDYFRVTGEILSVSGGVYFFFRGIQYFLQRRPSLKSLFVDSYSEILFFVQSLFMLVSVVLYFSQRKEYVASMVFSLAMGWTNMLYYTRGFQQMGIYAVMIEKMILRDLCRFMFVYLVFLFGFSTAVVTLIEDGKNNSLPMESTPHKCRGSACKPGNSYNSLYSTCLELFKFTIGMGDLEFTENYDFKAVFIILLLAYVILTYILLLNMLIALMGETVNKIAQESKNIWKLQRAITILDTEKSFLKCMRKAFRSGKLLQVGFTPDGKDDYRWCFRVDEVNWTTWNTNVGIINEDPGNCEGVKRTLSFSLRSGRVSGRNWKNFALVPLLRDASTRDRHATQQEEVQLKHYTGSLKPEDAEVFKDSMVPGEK

Compound	IC50 (human TRPV1) [µM]	IC50 (rat TRPV1; [1]) [µM]	IC50 (rat TRPV1) [µM]
CC(C)CNc1nc(Nc2ccc(C(F)(F)F)cc2)c2nc(Cc3c(Cl)cccc3Cl)sc2n1 [Example 69, 2-(2,6-Dichloro-benzyl)-N^5-isobutyl-N^7-(4-trifluoromethyl-phenyl)-thiazolo[5,4-d]pyrimidine-5,7-diamine]	0.031	0.014	–
FC(F)(F)c1ccc(Nc2ncnc3sc(Cc4ccccc4-c4ccccc4)nc23)cc1 [Example 105, (2-Biphenyl-2-ylmethylthiazolo[5,4-d]pyrimidin-7-yl)-(4-trifluoromethylphenyl)-amine]	1.64	1.23	–
FC(F)(F)c1cccc(Nc2ncnc3sc(Cc4c(Cl)cccc4Cl)nc23)c1 [Example 24, 2-(2,6-Dichlorobenzyl)-N-[3-(trifluoromethyl)phenyl][1,3]thiazolo[5,4-d]pyrimidin-7-amine]	0.84	0.196	–
Cc1cccc(C)c1Cc1nc2c(Nc3ccc(Br)cc3)ncnc2s1 [Example 56, N-(4-Bromophenyl)-2-(2,6-dimethylbenzyl)[1,3]thiazolo[5,4-d]pyrimidin-7-amine]	0.714	0.475	–
Clc1ccc(Nc2ncnc3sc(Cc4c(Cl)cccc4Cl)nc23)cc1 [Example 40, N-(4-Chlorophenyl)-2-(2,6-dichlorobenzyl)[1,3]thiazolo[5,4-d]pyrimidin-7-amine]	0.049	0.051	–
FC(F)(F)c1ccc(Nc2ncnc3[nH]c(Cc4c(Cl)cccc4Cl)nc23)cc1 [Example 109, [8-(2,6-Dichloro-benzyl)-9H-purin-6-yl]-(4-trifluoromethyl-phenyl)-amine trifluoroacetic acid salt]	0.716	0.116	–
FC(F)(F)c1ccc(Nc2nc(NCc3ccncc3)nc3sc(Cc4c(Cl)cccc4Cl)nc23)cc1 [Example 86, 2-(2,6-Dichloro-benzyl)-N^5-pyridin-4-ylmethyl-N^7-(4-trifluoromethyl-phenyl)-thiazolo[5,4-d]pyrimidine-5,7-diamine trifluoroacetic acid salt]	1.07	0.187	–
NC(=O)c1ccc(-c2ccccc2Cc2nc3c(Nc4ccc(C(F)(F)F)cc4)ncnc3s2)cc1 [Example 107, 2′-[7-(4-Trifluoromethylphenylamino)-thiazolo[5,4-d]pyrimidin-2-ylmethyl]-biphenyl-4-carboxylic acid amide]	6.96	1.53	–
CS(=O)(=O)c1ccc(Nc2ncnc3sc(Cc4c(Cl)cccc4Cl)nc23)cc1F [Example 45, 2-(2,6-Dichlorobenzyl)-N-[3-fluoro-4-(methylsulfonyl)phenyl][1,3]thiazolo[5,4-d]pyrimidin-7-amine]	0.274	0.183	–
CC(C)(C)c1ccc(Nc2ncnc3oc(Cc4c(Cl)cccc4Cl)nc23)cc1 [Example 2, (4-tert-Butyl-phenyl)-[2-(2,6-dichloro-benzyl)-oxazolo[5,4-d]pyrimidin-7-yl]-amine]	0.075	0.03	–
FC(F)(F)c1ccc(Nc2ncnc3sc(Cc4ccc(Cl)cc4)nc23)cc1 [Example 35, 2-(4-Chlorobenzyl)-N-[4-(trifluoromethyl)phenyl][1,3]thiazolo[5,4-d]pyrimidin-7-amine]	0.988	0.042	–
FC(F)(F)c1ccc(Nc2nc(NCC3CCNCC3)nc3sc(Cc4c(Cl)cccc4Cl)nc23)cc1 [Example 92, 2-(2,6-Dichlorobenzyl)-N^5-(piperidin-4-ylmethyl)-N^7-[4-(trifluoromethyl)phenyl][1,3]thiazolo[5,4-d]pyrimidine-5,7-diamine hydrochloride salt]	4.72	4.33	–
Clc1cccc(Cl)c1Cc1nc2c(Nc3ccc(Br)cc3)ncnc2s1 [Example 41, N-(4-Bromophenyl)-2-(2,6-dichlorobenzyl)[1,3]thiazolo[5,4-d]pyrimidin-7-amine]	0.032	0.029	–
FC(F)(F)c1ccc(Nc2ncnc3sc(Cc4ccccc4Cl)nc23)cc1 [Example 20, 2-(2-Chlorobenzyl)-N-[4-(trifluoromethyl)phenyl][1,3]thiazolo[5,4-d]pyrimidin-7-amine]	0.04	0.032	–
FC(F)(F)c1ccc(Nc2nc(NCC3CC3)nc3sc(Cc4c(Cl)cccc4Cl)nc23)cc1 [Example 66, N^5-Cyclopropylmethyl-2-(2,6-dichloro-benzyl)-N^7-(4-trifluoromethyl-phenyl)-thiazolo[5,4-d]pyrimidine-5,7-diamine]	0.249	0.103	–
CN1CCN(S(=O)(=O)c2ccc(Nc3ncnc4sc(Cc5c(Cl)cccc5Cl)nc34)cc2)CC1 [Example 16, [2-(2,6-Dichloro-benzyl)-thiazolo[5,4-d]pyrimidin-7-yl]-[4-(4-methyl-piperazine-1-sulfonyl)-phenyl]-amine]	0.416	1.09	–
CC(C)[Si](Sc1ccccc1Cc1nc2c(Nc3ccc(C(F)(F)F)cc3)ncnc2s1)(C(C)C)C(C)C [Example 104, (4-Trifluoromethyl-phenyl)-[2-(2-triisopropylsilanylsulfanyl-benzyl)-thiazolo[5,4-d]pyrimidin-7-yl]-amine]	0.125	–	0.069
FC(F)(F)c1ccc(Nc2ncnc3sc(Cc4c(Cl)cccc4Cl)nc23)cc1Cl [Example 9, (3-Chloro-4-trifluoromethyl-phenyl)-[2-(2,6-dichloro-benzyl)-thiazolo[5,4-d]pyrimidin-7-yl]-amine]	0.04	0.074	–
CC(Nc1nc(Nc2ccc(C(F)(F)F)cc2)c2nc(Cc3c(Cl)cccc3Cl)sc2n1)c1ccccn1 (stereo not drawn) [Example 87, 2-(2,6-Dichlorobenzyl)-N^5-(1-pyridin-2-ylethyl)-N^7-[4-(trifluoromethyl)phenyl][1,3]thiazolo[5,4-d]pyrimidine-5,7-diamine]	0.05	0.021	–
FC(F)(F)c1ccccc1Cc1nc2c(Nc3ccccc3)ncnc2s1 [Example 48, N-Phenyl-2-[2-(trifluoromethyl)benzyl][1,3]thiazolo[5,4-d]pyrimidin-7-amine]	0.852	0.41	–
O=S(=O)(c1ccc(Nc2ncnc3sc(Cc4c(Cl)cccc4Cl)nc23)cc1)N1CCOCC1 [Example 15, [2-(2,6-Dichloro-benzyl)-thiazolo[5,4-d]pyrimidin-7-yl]-[4-(morpholine-4-sulfonyl)-phenyl]-amine]	0.033	0.054	–
Cc1cccc(C)c1Cc1nc2c(Nc3ccc(C(F)(F)F)nc3)ncnc2s1 [Example 59, 2-(2,6-Dimethylbenzyl)-N-[6-(trifluoromethyl)pyridin-3-yl][1,3]thiazolo[5,4-d]pyrimidin-7-amine]	0.139	0.183	–
FC(F)(F)c1ccccc1Nc1ncnc2sc(Cc3c(Cl)cccc3Cl)nc12 [Example 23, 2-(2,6-Dichlorobenzyl)-N-[2-(trifluoromethyl)phenyl][1,3]thiazolo[5,4-d]pyrimidin-7-amine]	> 6.67	1.79	–
FC(F)(F)c1ccc(Nc2nc(NCc3ccccn3)nc3sc(Cc4c(Cl)cccc4Cl)nc23)cc1 [Example 84, 2-(2,6-Dichloro-benzyl)-N^5-pyridin-2-ylmethyl-N^7-(4-trifluoromethyl-phenyl)-thiazolo[5,4-d]pyrimidine-5,7-diamine trifluoroacetic acid salt]	0.263	0.038	–
FC(F)(F)c1ccc(Nc2ncnc3oc(Cc4c(Cl)cccc4Cl)nc23)cc1 [Example 1, [2-(2,6-Dichloro-benzyl)-oxazolo[5,4-d]pyrimidin-7-yl]-(4-trifluoromethyl-phenyl)-amine]	0.136	0.058	–
FC(F)(F)c1ccc(Nc2ncnc3sc(Cc4ccccc4Cl)nc23)nc1 [Example 96, [2-(2-Chloro-benzyl)-thiazolo[5,4-d]pyrimidin-7-yl]-(5-trifluoromethyl-pyridin-2-yl)-amine]	0.466	0.224	–
FC(F)(F)c1ccc(Nc2nc(N3CCN(C4CCCC4)CC3)nc3sc(Cc4c(Cl)cccc4Cl)nc23)cc1 [Example 76, [5-(4-Cyclopentyl-piperazin-1-yl)-2-(2,6-dichloro-benzyl)-thiazolo[5,4-d]pyrimidin-7-yl]-(4-trifluoromethyl-phenyl)-amine trifluoroacetic acid salt]	0.31	0.074	–
